The source of these data is ChEMBL document CHEMBL1141738, “Antihyperglycemic effects of N-containing sugars from Xanthocercis zambesiaca, Morus bombycis, Aglaonema treubii, and Castanospermum australe in streptozotocin-diabetic mice” (1998).

Structures are written as SMILES. The source made the active and inactive calls. The calls are words filed in the database; no cut-off is given here.

Experiment [1] is filed under the species Mus musculus. Nature of the experiment: Antihyperglycemic effect on STZ-diabetic ddY mouse assessed as reduction in blood glucose level by glucose oxidase method. The class given is functional, organism-based.
For experiment [2], the system named is Mus musculus. Put plainly: Antihyperglycemic effect in STZ-diabetic ddY mouse assessed as reduction in blood glucose level at 150 umol/kg, ip after 4 hrs by glucose oxidase method. The format is functional, organism-based.
The test system of experiment [3] is Mus musculus. Put plainly: Antihyperglycemic effect in STZ-diabetic ddY mouse assessed as reduction in blood glucose level at 150 umol/kg, ip after 4 to 6 hrs by glucose oxidase method. The format is functional, organism-based.
Experiment [4] relates to Mus musculus. Put plainly: Antihyperglycemic effect in STZ-diabetic ddY mouse assessed as reduction in blood glucose level at 150 umol/kg, ip after 2 hrs by glucose oxidase method. The format is functional, organism-based. Conditions: TDE = time-dependent effect.
Experiment [5] relates to Mus musculus. Nature of the experiment: Antihyperglycemic effect on STZ-diabetic ddY mouse assessed as increase in plasma insulin level at 300 umol/kg, ip after 30 mins by ELISA. The format is functional.
Experiment [6] concerns Mus musculus. Put plainly: Antihyperglycemic effect on STZ-diabetic ddY mouse assessed as increase in plasma insulin level at 300 umol/kg, ip after 2 hrs by ELISA. The format is functional. On the technique in general: An ELISA detects its analyte on a solid surface through an enzyme-linked reagent.
Experiment [7] relates to Pancreas. Put plainly: Potentiation of 8.3 mM glucose-induced immunoreactive insulin release in perfused Wistar rat pancreas by radioimmunoassay. The class given is functional, tissue-based.
In experiment [8] the test system is Pancreas. Nature of the experiment: Potentiation of 8.3 mM glucose-induced immunoreactive insulin release in perfused Wistar rat pancreas at 1 mM by radioimmunoassay. The format is functional, tissue-based.
Experiment [9] has as its system Mus musculus. Put plainly: Antihyperglycemic effect in STZ-diabetic ddY mouse assessed as reduction in blood glucose level at 30 umol/kg, ip after 6 hrs by glucose oxidase method. The format is functional.

Take `OC[C@H]1NCC[C@@H](O)[C@@H]1O[C@@H]1O[C@H](CO)[C@@H](O)[C@H](O)[C@H]1O`: in the experiment listed under Mus musculus [1], the Activity result was “Dose-dependent effect”.
Turning to `OC[C@H]1N[C@H](CO)[C@@H](O)[C@@H]1O`, the result with Mus musculus [2] was Active.
For `O[C@H]1[C@H](O)[C@@H](O)CN2CC[C@H](O)[C@H]12`, the outcome in the experiment on Mus musculus [3] was Active.
For `OC[C@H]1NCC[C@@H](O)[C@@H]1O` [FAGOMINE], the Activity result is “tde” in the experiment with Mus musculus [4], 454 pg/mL in the experiment on Mus musculus [5], 560 pg/mL with Mus musculus [6] and “Dose-dependent effect” with Pancreas [7]. Moreover, the outcome in the experiment with Pancreas [8] was Active.
Regarding `COc1ccc(Cl)cc1C(=O)NCCc1ccc(S(=O)(=O)NC(=O)NC2CCCCC2)cc1` [GLYBURIDE], in the experiment with Mus musculus [9], the Activity turned out to be 138 mg/dL.
